Laboratory results published in ChEMBL document CHEMBL1177693, “Antimalarials from nature” (Bioorg Med Chem, 2009).
In brackets after ≈: the same amount, converted by molar mass.

test system: Plasmodium falciparum; assay: Antimalarial activity against Plasmodium falciparum; type: functional, organism-based; conditions: Plasmodium falciparum

IC50	Compound
> 20 µg/mL	C=C1C([C@@]2(C)C=CC(=O)C(C)(C)[C@@H]2[C@H](O)C(=O)OC)CC[C@@]2(C)[C@H](c3ccoc3)OC(=O)C[C@]12O (stereo partly drawn) [DOMESTICULIDE A]
620 nM	C=C1C(=O)O[C@@H]2C[C@@H](C)/C=C\C(=O)[C@@](C)(O)[C@H](OC(C)=O)[C@@H](OC(=O)CC(C)C)[C@@H]12 [NEUROLENIN B]
5.9 µg/mL	C=C1C2CC[C@@]3(C)[C@H](c4ccoc4)OC(=O)C[C@]13O[C@H]1CC(=O)C(C)(C)[C@H](CC(=O)OC)[C@@]21C

test system: Plasmodium falciparum; assay: Antimalarial activity against Plasmodium falciparum T9-96; type: functional, organism-based; conditions: not given

Compound	IC50 [µg/mL]
CO[C@@H]1C=C[C@@]23c4cc5c(cc4CN(C[C@@H]2O)[C@H]3C1)OCO5 [(+)-HAEMANTHAMINE]	0.7 (≈ 2.32 µM)
CO[C@@H]1C=C[C@]23c4cc5c(cc4[C@@H](O)N(C[C@@H]2O)[C@H]3C1)OCO5	0.34 (≈ 1.07 µM)

test system: Plasmodium falciparum; assay: Antimalarial activity against Plasmodium falciparum K1; type: functional, organism-based; conditions: not given

Compound	EC50 [µg/mL]	IC50
CC[C@H](C)[C@H]1OC(=O)[C@H](Cc2ccccc2)N(C)C(=O)[C@@H](C(C)C)OC(=O)[C@H](Cc2ccccc2)N(C)C(=O)[C@@H](C(C)C)OC(=O)[C@H](Cc2ccccc2)N(C)C1=O [BEAUVERICIN A]	12 (≈ 15 µM)	
CC(C)[C@@H]1OC(=O)[C@@H](Cc2ccccc2)N(C)C(=O)[C@H](C(C)C)OC(=O)[C@@H](Cc2ccccc2)N(C)C(=O)[C@H](C(C)C)OC(=O)[C@@H](Cc2ccccc2)N(C)C1=O [BEAUVERICIN]	1.6 (≈ 2.04 µM)	
CO[C@@H]1C=C[C@@]23c4cc5c(cc4CO[C@]2(O)CN(C)[C@H]3C1)OCO5 [TAZETTINE]		5.42 µg/mL
COc1ccc2c3c1O[C@H]1C[C@@H](O)C=C[C@@]31CCN(C)C2 [GALANTAMINE]		4.38 µg/mL
CCN(CC)CC(O)COc1cc2oc3cc(O)c(CC=C(C)C)c(O)c3c(=O)c2c(CC=C(C)C)c1OC (stereo not drawn)		< 1000 nM
COc1c(OCCCN(C)C)cc2oc3cc(O)c(CC=C(C)C)c(O)c3c(=O)c2c1CC=C(C)C		< 1000 nM
COC(=O)C[C@H]1[C@]2(C)C3=C(C)[C@H](c4ccoc4)C[C@H]3O[C@@H]2[C@@H]2OC(=O)[C@]3(C)C=CC(=O)[C@@]1(C)[C@@H]23 [NIMBOLIDE]	0.00095 (≈ 0.00204 µM)	
C[C@H]1C/C=C/[C@@H](O)[C@@H](O)CC/C=C/c2cc(O)cc(O)c2C(=O)O1 [AIGIALOMYCIN D]		6.6 µg/mL
CCN(CC)CCOc1cc2oc3cc(O)c(CC=C(C)C)c(O)c3c(=O)c2c(CC=C(C)C)c1OC		< 1000 nM

test system: Plasmodium falciparum; assay: Antimalarial activity against multidrug-resistant Plasmodium falciparum K1; type: functional, organism-based; conditions: not given

Compound	IC50 [nM]
Cc1c2ccncc2c(C)c2c1[nH]c1ccccc12 [ELLIPTECINE]	73
CN1C2=CC(O)=c3ccccc3=NC2c2ccccc21 (stereo not drawn) [CRYPTOHEPTINE]	800
COC(=O)[C@]12OC[C@]34[C@H]([C@@H](O)[C@@H]1O)[C@@]1(C)C5=CC(=O)OC5=C[C@@H](C)[C@@H]1C[C@H]3OC(=O)[C@H](OC(C)=O)[C@@H]24 [NEOSERGEOLIDE]	2
CC[C@@]12CCCN3CC[C@]4(c5ccc(OC)c(O)c5N(C(C)=O)[C@@H]4CC1)[C@H]32 [ASPIDOCARPINE]	19

test system: Plasmodium falciparum; assay: Antimalarial activity against Plasmodium falciparum W2; type: functional, organism-based; conditions: not given

IC50 [nM]	Compound
52300	COc1cc2c(cc1OC)CN1CCc3cc(OC)c(OC)cc3[C@@H]1C2 [XYLOPININE]
610	COc1ccc2cc1Oc1ccc(cc1)C[C@H]1c3c(cc4c(c3Oc3cc5c(cc3OC)CCN(C)[C@@H]5C2)OCO4)CCN1C [CEPHARANTHINE]
32600	COc1cc2c(cc1OC)[C@@H]1Cc3ccc(OC)c(OC)c3CN1CC2 [TETRAHYDROPALMATINE]

Compound	IC50 [nM]
CN1CCc2cc3c(c4c2c1cc1ccccc14)OCO3 [DEHYDROROEMERINE]	360

test system: Plasmodium falciparum; assay: Antimalarial activity against chloroquine-resistant Plasmodium falciparum; type: functional, organism-based; conditions: not given

Compound	IC50 [µg/mL]
COc1ccc([C@@H]2Oc3cc(O)cc(O)c3C(=O)[C@H]2[C@H]2C(=O)c3c(O)cc(O)cc3O[C@H]2c2ccc(O)cc2)cc1 [SIKOKIANIN B]	0.54 (≈ 0.97 µM)
COc1ccc([C@H]2Oc3cc(O)cc(O)c3C(=O)[C@@H]2[C@H]2C(=O)c3c(O)cc(O)cc3O[C@@H]2c2ccc(O)cc2)cc1 [SIKOKIANIN C]	0.56 (≈ 1.01 µM)

test system: Plasmodium berghei; assay: Antimalarial activity against Plasmodium berghei infected in mice (Mus musculus) assessed as increase in survival of mice (Mus musculus) at 100 uM/kg; type: functional; conditions: not given

Compound	Survival [days]
CCN(CC)CCCC(C)Nc1ccnc2cc(Cl)ccc12 (stereo not drawn) [CHLOROQUINE]	6
Oc1cccc2c1[nH]c1c(C3=C[C@]4(O)CC/C=C\CCCCN5CC[C@H]3[C@@]3(C[C@H]6/C=C\CCCCN6[C@@H]34)C5)nccc12 [ENT-8-HYDROXYMENZAMINE A]	9
O[C@@H]1CCCN2CC[C@@H]1O[C@@]13CC[C@@H](OC[C@]45CN6CCCC/C=C\CC[C@](O)(C=C(c7nccc8c7[nH]c7ccccc78)[C@@H]4CC6)[C@H]25)[C@@H](O)CCN1[C@@H]1[C@]2(CN4CCCC/C=C\CC[C@]1(O)C=C(c1nccc5c1[nH]c1ccccc15)[C@@H]2CC4)C3 [NEO-KAULUAMINE]	9
C[C@@H]1CC[C@H]2[C@@H](C)C(=O)O[C@@H]3O[C@@]4(C)CC[C@@H]1[C@]32OO4 [ARTEMISININ]	2
